≈ marks a conversion by molar mass, not a printed value. Where two headings read alike, the source gives them in different places.
Key:
Type in all cases: cell-based
[1] = test system: Mycobacterium tuberculosis (Mtb-GFP; H37Rv pMSP12::GFP); assay: microbe, parasite or virus in culture; conditions: 168 h, pH 6.8, read-out: Mtb Cho MITC95, cholesterol carbon source, pH 6.8, 7-day growth, GFP fluorescence, lowest concentration inhibiting 95% of growth
[2] = test system: Mycobacterium tuberculosis (Mtb-GFP; H37Rv pMSP12::GFP); assay: microbe, parasite or virus in culture; conditions: 168 h, pH 6.8, read-out: Mtb Glu MITC95, glucose carbon source, pH 6.8, 7-day growth, GFP fluorescence, lowest concentration inhibiting 95% of growth
[3] = test system: mitochondrial protein synthesis in HepG2 cells; assay: Mitochondrial protein synthesis assay (COX-I to SDH-A ratio, In Cell ELISA); conditions: 4 days, ratio of COX-I to SDH-A levels, read-out: MPS IC50
Description: Mitochondrial Protein Synthesis Assay
Inhibition of mitochondrial protein synthesis was assessed in HepG2 cells by comparing the levels of two subunits of oxidative phosphorylation enzyme complexes, subunit I of Complex IV (COX-I) and the 70 kDa subunit of Complex II (SDH-A). COX-I is mitochondrial DNA encoded and SDH-A is nuclear DNA encoded. HepG2 cells were seeded in 96-well collagen coated plates at 8,000 cells per well and exposed to 2-fold serial dilutions of compounds from 100 μM to 6.25 μM. Microtiter plates were incubated for approximately 5 replication cycles (4 days) prior to assessment of protein levels using a kit as described by the manufacturer (ab110217 MitoBiogenesis In Cell ELISA Kit, Abcam, Cambridge, MA). Inhibition of mitochondrial protein synthesis was expressed as a ratio of COX-1 to SDH-A levels.

SMILES | MIC [1] | MIC [2] | IC50 ([3]; Homo sapiens, HepG2, 96 h) | IC50 [3]
CC1(c2nnc3cc(-c4ccc(C5=NO[C@@H](Cn6ccnn6)C5)cc4F)ccn23)CNC1 [Example 12, 7-(2-Fluoro-4-{(5R)-5-[(1H-1,2,3-triazol-1-yl)methyl]-4,5-dihydro-1,2-oxazol-3-yl}phenyl)-3-(3-methylazetidin-3-yl)[1,2,4]triazolo[4,3-a]pyridine] | 0.78 µM (≈ 0.337 µg/mL) | 0.78 µM (≈ 0.337 µg/mL) | > 100 µM | 
CCOC(=O)NC[C@H]1CC(c2cc(F)c(C3(F)CCS(=O)(=O)CC3)c(F)c2)=NO1 [Example 55, Ethyl ({(5R)-3-[3,5-difluoro-4-(4-fluoro-1,1-dioxo-1λ^6-thian-4-yl)phenyl]-4,5-dihydro-1,2-oxazol-5-yl}methyl)carbamate] | 3.12 µM (≈ 1.36 µg/mL) | 3.12 µM (≈ 1.36 µg/mL) | > 100 µM | 
CN1CC(C)(S(=O)(=O)c2ccc(-c3ccc(C4=NO[C@@H](CNC(=O)C56CC(C5)C6)C4)cc3F)cc2)C1 [Example 28, N-({(5R)-3-[4′-(1,3-Dimethylazetidine-3-sulfonyl)-2-fluoro[1,1′-biphenyl]-4-yl]-4,5-dihydro-1,2-oxazol-5-yl}methyl)bicyclo[1.1.1] pentane-1-carboxamide] | 0.78 µM (≈ 0.399 µg/mL) | 1.56 µM (≈ 0.798 µg/mL) | 62 µM | 
CN1CC(C)(S(=O)(=O)c2ccc(-c3c(F)cc(C4=NO[C@@H](Cn5ccnn5)C4)cc3F)cn2)C1 [Example 24, 5-(2,6-Difluoro-4-{(5R)-5-[(1H-1,2,3-triazol-1-yl)methyl]-4,5-dihydro-1,2-oxazol-3-yl}phenyl)-2-(1,3-dimethylazetidine-3-sulfonyl)pyridine] | 3.12 µM (≈ 1.52 µg/mL) | 3.12 µM (≈ 1.52 µg/mL) | 76 µM | 
CN1CC(CF)(S(=O)(=O)c2ccc(-c3ccc(C4=NO[C@@H](Cn5ccnn5)C4)cc3F)cc2)C1 [Example 25, 1-{[(5R)-3-{2-Fluoro-4′-[3-(fluoromethyl)-1-methylazetidine-3-sulfonyl][1,1′-biphenyl]-4-yl}-4,5-dihydro-1,2-oxazol-5-yl]methyl}-1H-1,2,3-triazole] | 0.09 µM (≈ 0.0439 µg/mL) | 0.19 µM (≈ 0.0926 µg/mL) | 2.5 µM | 
Cc1nnc2cc(-c3c(F)cc(C4=NO[C@@H](Cn5ccnn5)C4)cc3F)ccn12 [Example 16, (5R)-3-[3,5-Difluoro-4-(3-methyl-[1,2,4]triazolo[4,3-a]pyridin-7-yl)phenyl]-5-(triazol-1-ylmethyl)-4,5-dihydroisoxazole] | 0.59 µM (≈ 0.233 µg/mL) | 0.39 µM (≈ 0.154 µg/mL) | 5.4 µM | 
CN1CC(Oc2ccc(-c3c(F)cc(C4=NO[C@@H](Cn5ccnn5)C4)cc3F)cc2)C1 [Example 34, 1-{[(5R)-3-{2,6-Difluoro-4′-[(1-methylazetidin-3-yl)oxy][1,1′-biphenyl]-4-yl}-4,5-dihydro-1,2-oxazol-5-yl]methyl}-1H-1,2,3-triazole] | 0.09 µM (≈ 0.0383 µg/mL) | 0.09 µM (≈ 0.0383 µg/mL) | 2.6 µM | 
CC(=O)NC[C@H]1CN(c2ccc(N3CCOCC3)c(F)c2)C(=O)O1 [linezolid, reference compound] | 3.14 µM (≈ 1.06 µg/mL) | 4.58 µM (≈ 1.55 µg/mL) | 8 µM | 
CCC1(S(=O)(=O)c2ccc(-c3ccc(C4=NO[C@@H](Cn5ccnn5)C4)cc3F)cc2)CN(C)C1 [Example 43, 1-({(5R)-3-[4′-(3-Ethyl-1-methylazetidine-3-sulfonyl)-2-fluoro[1,1′-biphenyl]-4-yl]-4,5-dihydro-1,2-oxazol-5-yl}methyl)-1H-1,2,3-triazole] | 0.19 µM (≈ 0.0919 µg/mL) | 0.19 µM (≈ 0.0919 µg/mL) | 4.1 µM | 
O=S1(=O)CCC(F)(c2c(F)cc(C3=NO[C@@H](Cn4cc(CO)nn4)C3)cc2F)CC1 [Example 40, 4-{2,6-Difluoro-4-[(5R)-5-{[4-(hydroxymethyl)-1H-1,2,3-triazol-1-yl]methyl}-4,5-dihydro-1,2-oxazol-3-yl]phenyl}-4-fluoro-1λ^6-thiane-1,1-dione] | 1.56 µM (≈ 0.693 µg/mL) | 1.56 µM (≈ 0.693 µg/mL) | > 100 µM | 
O=S1(=O)CCC(F)(c2ccc(C3=NO[C@@H](Cn4ccnn4)C3)cc2F)CC1 [Example 48, 4-Fluoro-4-(2-fluoro-4-{(5R)-5-[(1H-1,2,3-triazol-1-yl)methyl]-4,5-dihydro-1,2-oxazol-3-yl}phenyl)-1λ^6-thiane-1,1-dione] | 6.25 µM (≈ 2.48 µg/mL) | 6.25 µM (≈ 2.48 µg/mL) | > 100 µM | 
CN1CC(C)(S(=O)(=O)c2ccc(-c3ccc(C4=NO[C@@H](CNC(=O)C5(C)CC5)C4)cc3F)cc2)C1 [Example 27, N-({(5R)-3-[4′-(1,3-Dimethylazetidine-3-sulfonyl)-2-fluoro[1,1′-biphenyl]-4-yl]-4,5-dihydro-1,2-oxazol-5-yl}methyl)-1-methylcyclopropane-1-carboxamide] | 0.78 µM (≈ 0.39 µg/mL) | 0.78 µM (≈ 0.39 µg/mL) | 37 µM | 
CN1CC(C)(S(=O)(=O)c2ccc(-c3ccc(C4=NO[C@@H](C(N)=O)C4)cc3F)cc2)C1 [Example 56, (5R)-3-[4′-(1,3-Dimethylazetidine-3-sulfonyl)-2-fluoro[1,1′-biphenyl]-4-yl]-4,5-dihydro-1,2-oxazole-5-carboxamide] | 6.25 µM (≈ 2.7 µg/mL) | 13 µM (≈ 5.61 µg/mL) | > 100 µM | 
CS(=O)(=O)NC[C@H]1CC(c2cc(F)c(C3(F)CCS(=O)(=O)CC3)c(F)c2)=NO1 [Example 53, N-({(5R)-3-[3,5-Difluoro-4-(4-fluoro-1,1-dioxo-1λ^6-thian-4-yl)phenyl]-4,5-dihydro-1,2-oxazol-5-yl}methyl) methanesulfonamide] | 6.25 µM (≈ 2.75 µg/mL) | 6.25 µM (≈ 2.75 µg/mL) | > 100 µM | 
CN1CC(C)(S(=O)(=O)c2ccc(-c3ccc(C4=NO[C@@H](CNC(=O)C5CC5)C4)cc3F)cc2)C1 [Example 49, N-({(5R)-3-[4′-(1,3-Dimethylazetidine-3-sulfonyl)-2-fluoro[1,1′-biphenyl]-4-yl]-4,5-dihydro-1,2-oxazol-5-yl}methyl) cyclopropanecarboxamide] | 0.17 µM (≈ 0.0825 µg/mL) | 0.15 µM (≈ 0.0728 µg/mL) | 51 µM | 
CN=S1(=O)CCN(c2c(F)cc(C3=NO[C@@H](Cn4ccnn4)C3)cc2F)CC1 [Example 31, 4-(2,6-Difluoro-4-{(5R)-5-[(1H-1,2,3-triazol-1-yl)methyl]-4,5-dihydro-l,2-oxazol-3-yl}phenyl)-1-(methylimino)-1λ^6-thiomorpholin-1-one] | 5.47 µM (≈ 2.25 µg/mL) | 4.69 µM (≈ 1.93 µg/mL) | > 100 µM | 
CN1CC(C)(S(=O)(=O)c2ccc(-c3ccc(C4=NO[C@@H](CO)C4)cc3F)cc2)C1 [Example 21, {(5R)-3-[4′-(1,3-Dimethylazetidine-3-sulfonyl)-2-fluoro[1,1′-biphenyl]-4-yl]-4,5-dihydro-1,2-oxazol-5-yl}methanol] | 1.56 µM (≈ 0.653 µg/mL) | 1.56 µM (≈ 0.653 µg/mL) | > 100 µM | 
CN1CC(Oc2ccc(-c3ccc(C4=NO[C@@H](CO)C4)cc3F)cc2)C1 [Example 35, [(5R)-3-{2-Fluoro-4′-[(1-methylazetidin-3-yl)oxy][1,1′-biphenyl]-4-yl}-4,5-dihydro-1,2-oxazol-5-yl]methanol] | 3.12 µM (≈ 1.11 µg/mL) | 3.12 µM (≈ 1.11 µg/mL) | > 50 µM | 
O=C(NC[C@H]1CC(c2cc(F)c(C3(F)CCS(=O)(=O)CC3)c(F)c2)=NO1)OC1CC1 [Example 50, Cyclopropyl({(5R)-3-[3,5-difluoro-4-(4-fluoro-1,1-dioxo-1λ^6-thian-4-yl)phenyl]-4,5-dihydro-1,2-oxazol-5-yl}methyl)carbamate] | 3.12 µM (≈ 1.39 µg/mL) | 3.12 µM (≈ 1.39 µg/mL) | > 100 µM | 
Fc1cc(C2=NO[C@@H](Cn3ccnn3)C2)ccc1-c1ccn2c(C3(F)CNC3)nnc2c1 [Example 52, 3-(3-Fluoroazetidin-3-yl)-7-(2-fluoro-4-{(5R)-5-[(1H-1,2,3-triazol-1-yl)methyl]-4,5-dihydro-1,2-oxazol-3-yl}phenyl)[1,2,4]triazolo [4.3-a]pyridine] | 0.78 µM (≈ 0.34 µg/mL) | 0.78 µM (≈ 0.34 µg/mL) | 27 µM | 
CN1CC(S(=O)(=O)c2ccc(-c3ccc(C4=NO[C@@H](CO)C4)cc3F)cc2)C1 [Example 13, [(5R)-3-[3-Fluoro-4-[4-(1-methylazetidin-3-yl)sulfonylphenyl]phenyl]-4,5-dihydroisoxazol-5-yl]methanol] | 1.2 µM (≈ 0.485 µg/mL) | 1 µM (≈ 0.404 µg/mL) | 24 µM | 
N=S1(=O)CCC(F)(c2c(F)cc(C3=NO[C@@H](Cn4ccnn4)C3)cc2F)CC1 (stereo partly drawn) [Example 38, 4-(2,6-Difluoro-4-{(5R)-5-[(1H-1,2,3-triazol-1-yl)methyl]-4,5-dihydro-1,2-oxazol-3-yl}phenyl)-4-fluoro-1-imino-1λ^6-thian-1-one] | 1.56 µM (≈ 0.645 µg/mL) | 0.78 µM (≈ 0.322 µg/mL) |  | 44 µM
CN=S1(=O)CCC(F)(c2c(F)cc(C3=NO[C@@H](Cn4ccnn4)C3)cc2F)CC1 (single isomer, unassigned) [Example 6] | 1.56 µM (≈ 0.667 µg/mL) | 1.56 µM (≈ 0.667 µg/mL) | > 100 µM | 
N#Cc1ccc(-c2ccc(C3=NO[C@@H](COC(N)=O)C3)cc2F)cn1 [Example 20, {(5R)-3-[4-(6-Cyanopyridin-3-yl)-3-fluorophenyl]-4,5-dihydro-1,2-oxazol-5-yl}methyl carbamate] | 0.19 µM (≈ 0.0647 µg/mL) | 0.39 µM (≈ 0.133 µg/mL) | 7.2 µM | 
CN=S1(=O)CCC(F)(c2c(F)cc(C3=NO[C@@H](CNC(C)=O)C3)cc2F)CC1 (stereo partly drawn) [Example 29, N-{[(5R)-3-{3,5-Difluoro-4-[4-fluoro-1-(methylimino)-1-oxo-1λ^6-thian-4-yl]phenyl}-4,5-dihydro-1,2-oxazol-5-yl]methyl}acetamide] | 1.56 µM (≈ 0.651 µg/mL) | 1.56 µM (≈ 0.651 µg/mL) | > 100 µM | 

Source: US20260035363A1, “COMPOUNDS AND METHODS OF USE THEREOF AS ANTIBACTERIAL AGENTS” (priority 2019, published 2026)
